Measured values: PubChem BioAssay AID1963970 (Molecular Pharmacology Branch, DTP, NCI, 2024)

Tested on: 931267-113-T-J1-PDC multicell spheroid viability
Experiment: Anticancer human tumor 931267-113-T-J1-PDC patient-derived colon adenocarcinoma cell line growth inhibition [PI3K]
Settings: for IC50: curve of first compound; for viability, T/C: stronger effect = lower value
How it was run: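 We assembled tumor spheroids that included a stromal compartment of HUVEC and MSCs, then exposed them to targeted agents alone and together with PI3K pathway inhibitors. Concentration series descended by half-log from clinically achievable Cmax levels. Viability served as the endpoint.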

[1] = second compound 0.00316 µM, first compound 0.0316 µM
[2] = second compound 0.00316 µM, first compound 0.1 µM
[3] = second compound 0.00316 µM, first compound 0.316 µM
[4] = second compound 0.00316 µM, first compound 1 µM
[5] = second compound 0.00316 µM, first compound 3.16 µM
[6] = second compound 0.00316 µM, first compound 10 µM
[7] = second compound 0.01 µM, first compound 0.0316 µM
[8] = second compound 0.01 µM, first compound 0.1 µM
[9] = second compound 0.01 µM, first compound 0.316 µM
[10] = second compound 0.01 µM, first compound 1 µM
[11] = second compound 0.01 µM, first compound 3.16 µM
[12] = second compound 0.01 µM, first compound 10 µM
[13] = second compound 0.0316 µM, first compound 0.0316 µM
[14] = second compound 0.0316 µM, first compound 0.1 µM
[15] = second compound 0.0316 µM, first compound 0.316 µM
[16] = second compound 0.0316 µM, first compound 1 µM
[17] = second compound 0.0316 µM, first compound 3.16 µM
[18] = second compound 0.0316 µM, first compound 10 µM
[19] = second compound 0.1 µM, first compound 0.0316 µM
[20] = second compound 0.1 µM, first compound 0.1 µM
[21] = second compound 0.1 µM, first compound 0.316 µM
[22] = second compound 0.1 µM, first compound 1 µM
[23] = second compound 0.1 µM, first compound 3.16 µM
[24] = second compound 0.1 µM, first compound 10 µM
[25] = second compound 0.316 µM, first compound 0.0316 µM
[26] = second compound 0.316 µM, first compound 0.1 µM
[27] = second compound 0.316 µM, first compound 0.316 µM
[28] = second compound 0.316 µM, first compound 1 µM
[29] = second compound 0.316 µM, first compound 3.16 µM
[30] = second compound 0.316 µM, first compound 10 µM
[31] = second compound 1 µM, first compound 0.0316 µM
[32] = second compound 1 µM, first compound 0.1 µM
[33] = second compound 1 µM, first compound 0.316 µM
[34] = second compound 1 µM, first compound 1 µM
[35] = second compound 1 µM, first compound 3.16 µM
[36] = second compound 1 µM, first compound 10 µM
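Further: viability read 7 days after compound addition.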

Q: Which IC50 (second compound 0.00316 µM) does the source give for `CC1(C)CCC(CN2CCN(c3ccc(C(=O)NS(=O)(=O)c4ccc(NCC5CCOCC5)c([N+](=O)[O-])c4)c(Oc4cnc5[nH]ccc5c4)c3)CC2)=C(c2ccc(Cl)cc2)C1` + COc1c(OCCCN2CCOCC2)ccc2c3n(c(=NC(=O)c4cnc(N)nc4)nc12)CCN3 here?
A: > 10000 nM

Q: What about the IC50 (second compound 0.01 µM) of the same compound?
A: > 10000 nM

Q: What about the IC50 (second compound 0.0316 µM) of the same compound?
A: > 10000 nM

Q: And the IC50 (second compound 0.1 µM)?
A: 7490 nM

Q: And the IC50 (second compound 0.316 µM)?
A: 2360 nM

Q: What about the IC50 (second compound 1 µM) of the same compound?
A: < 31.6 nM

Q: And the viability, T/C [1]?
A: 105%

Q: What about the viability, T/C [2] of the same compound?
A: 99.5%

Q: What about the viability, T/C [3] of the same compound?
A: 99%

Q: What about the viability, T/C [4] of the same compound?
A: 102%

Q: And the viability, T/C [5]?
A: 99.7%

Q: And the viability, T/C [6]?
A: 80.8%

Q: What about the viability, T/C [7] of the same compound?
A: 104%

Q: What about the viability, T/C [8] of the same compound?
A: 104%

Q: What about the viability, T/C [9] of the same compound?
A: 97.6%

Q: What about the viability, T/C [10] of the same compound?
A: 91.7%

Q: What about the viability, T/C [11] of the same compound?
A: 96.5%

Q: What about the viability, T/C [12] of the same compound?
A: 71.1%

Q: And the viability, T/C [13]?
A: 92.4%

Q: What about the viability, T/C [14] of the same compound?
A: 89.8%

Q: What about the viability, T/C [15] of the same compound?
A: 92.8%

Q: And the viability, T/C [16]?
A: 86.4%

Q: What about the viability, T/C [17] of the same compound?
A: 87.3%

Q: What about the viability, T/C [18] of the same compound?
A: 68.2%

Q: And the viability, T/C [19]?
A: 74.9%

Q: And the viability, T/C [20]?
A: 74.8%

Q: What about the viability, T/C [21] of the same compound?
A: 71.2%

Q: And the viability, T/C [22]?
A: 65.1%

Q: What about the viability, T/C [23] of the same compound?
A: 59.5%

Q: What about the viability, T/C [24] of the same compound?
A: 46.8%

Q: And the viability, T/C [25]?
A: 53.5%

Q: And the viability, T/C [26]?
A: 50.3%

Q: And the viability, T/C [27]?
A: 49.2%

Q: And the viability, T/C [28]?
A: 51.7%

Q: And the viability, T/C [29]?
A: 49.6%

Q: And the viability, T/C [30]?
A: 31.3%

Q: And the viability, T/C [31]?
A: 37.5%

Q: And the viability, T/C [32]?
A: 32.5%

Q: And the viability, T/C [33]?
A: 35.8%

Q: What about the viability, T/C [34] of the same compound?
A: 36.1%

Q: What about the viability, T/C [35] of the same compound?
A: 33.7%

Q: What about the viability, T/C [36] of the same compound?
A: 33.3%

Q: With `C[C@@H](NC(=O)c1ncnc(N)c1Cl)c1ncc(C(=O)Nc2cc(C(F)(F)F)c(Cl)cn2)s1` + COc1c(OCCCN2CCOCC2)ccc2c3n(c(=NC(=O)c4cnc(N)nc4)nc12)CCN3 as the compound, how does the IC50 (second compound 0.00316 µM) read?
A: > 10000 nM

Q: And the IC50 (second compound 0.01 µM)?
A: > 10000 nM

Q: What about the IC50 (second compound 0.0316 µM) of the same compound?
A: > 10000 nM

Q: What about the IC50 (second compound 0.1 µM) of the same compound?
A: 4050 nM

Q: And the IC50 (second compound 0.316 µM)?
A: 1320 nM

Q: And the IC50 (second compound 1 µM)?
A: < 31.6 nM

Q: And the viability, T/C [1]?
A: 109%

Q: What about the viability, T/C [2] of the same compound?
A: 117%

Q: What about the viability, T/C [3] of the same compound?
A: 106%

Q: And the viability, T/C [4]?
A: 111%

Q: What about the viability, T/C [5] of the same compound?
A: 105%

Q: And the viability, T/C [6]?
A: 76%

Q: And the viability, T/C [7]?
A: 108%

Q: What about the viability, T/C [8] of the same compound?
A: 102%

Q: And the viability, T/C [9]?
A: 104%

Q: And the viability, T/C [10]?
A: 115%

Q: And the viability, T/C [11]?
A: 96.5%

Q: What about the viability, T/C [12] of the same compound?
A: 74.2%

Q: What about the viability, T/C [13] of the same compound?
A: 95.3%

Q: What about the viability, T/C [14] of the same compound?
A: 94.4%

Q: And the viability, T/C [15]?
A: 94.7%

Q: And the viability, T/C [16]?
A: 92.1%

Q: And the viability, T/C [17]?
A: 76.6%

Q: And the viability, T/C [18]?
A: 51%

Q: What about the viability, T/C [19] of the same compound?
A: 86.5%

Q: What about the viability, T/C [20] of the same compound?
A: 75.8%

Q: What about the viability, T/C [21] of the same compound?
A: 76.6%

Q: And the viability, T/C [22]?
A: 65%

Q: What about the viability, T/C [23] of the same compound?
A: 57.2%

Q: What about the viability, T/C [24] of the same compound?
A: 33.7%

Q: What about the viability, T/C [25] of the same compound?
A: 58.9%

Q: And the viability, T/C [26]?
A: 58.8%

Q: What about the viability, T/C [27] of the same compound?
A: 59.4%

Q: And the viability, T/C [28]?
A: 51.4%

Q: What about the viability, T/C [29] of the same compound?
A: 41.8%

Q: And the viability, T/C [30]?
A: 25.1%

Q: And the viability, T/C [31]?
A: 45.4%

Q: And the viability, T/C [32]?
A: 41%

Q: What about the viability, T/C [33] of the same compound?
A: 42.6%

Q: What about the viability, T/C [34] of the same compound?
A: 35.2%

Q: What about the viability, T/C [35] of the same compound?
A: 32.1%

Q: And the viability, T/C [36]?
A: 18.5%

Q: Which results are given for `Cn1ncnc1[C@H]1c2n[nH]c(=O)c3cc(F)cc(c23)N[C@@H]1c1ccc(F)cc1` + COc1c(OCCCN2CCOCC2)ccc2c3n(c(=NC(=O)c4cnc(N)nc4)nc12)CCN3?
A: IC50 (second compound 0.00316 µM): > 100 nM; IC50 (second compound 0.01 µM): > 100 nM; IC50 (second compound 0.0316 µM): > 100 nM; IC50 (second compound 0.1 µM): > 100 nM; IC50 (second compound 0.316 µM): 1.13 nM; IC50 (second compound 1 µM): < 0.316 nM; viability, T/C (second compound 0.00316 µM, first compound 0.000316 µM): 103%; viability, T/C (second compound 0.00316 µM, first compound 0.001 µM): 107%; viability, T/C (second compound 0.00316 µM, first compound 0.00316 µM): 107%; viability, T/C (second compound 0.00316 µM, first compound 0.01 µM): 98.7%; viability, T/C [1]: 106%; viability, T/C [2]: 93.9%; viability, T/C (second compound 0.01 µM, first compound 0.000316 µM): 103%; viability, T/C (second compound 0.01 µM, first compound 0.001 µM): 97.9%; viability, T/C (second compound 0.01 µM, first compound 0.00316 µM): 94.2%; viability, T/C (second compound 0.01 µM, first compound 0.01 µM): 89.2%; viability, T/C [7]: 93%; viability, T/C [8]: 91.3%; viability, T/C (second compound 0.0316 µM, first compound 0.000316 µM): 85.2%; viability, T/C (second compound 0.0316 µM, first compound 0.001 µM): 88.9%; viability, T/C (second compound 0.0316 µM, first compound 0.00316 µM): 82.1%; viability, T/C (second compound 0.0316 µM, first compound 0.01 µM): 83%; viability, T/C [13]: 81.8%; viability, T/C [14]: 79%; viability, T/C (second compound 0.1 µM, first compound 0.000316 µM): 70.2%; viability, T/C (second compound 0.1 µM, first compound 0.001 µM): 68.5%; viability, T/C (second compound 0.1 µM, first compound 0.00316 µM): 70.7%; viability, T/C (second compound 0.1 µM, first compound 0.01 µM): 66%; viability, T/C [19]: 69%; viability, T/C [20]: 61.3%; viability, T/C (second compound 0.316 µM, first compound 0.000316 µM): 54.3%; viability, T/C (second compound 0.316 µM, first compound 0.001 µM): 52.5%; viability, T/C (second compound 0.316 µM, first compound 0.00316 µM): 46.1%; viability, T/C (second compound 0.316 µM, first compound 0.01 µM): 43.4%; viability, T/C [25]: 46.4%; viability, T/C [26]: 43.4%; viability, T/C (second compound 1 µM, first compound 0.000316 µM): 33.3%; viability, T/C (second compound 1 µM, first compound 0.001 µM): 34.1%; viability, T/C (second compound 1 µM, first compound 0.00316 µM): 30.9%; viability, T/C (second compound 1 µM, first compound 0.01 µM): 34.4%; viability, T/C [31]: 36.6%; viability, T/C [32]: 30.3%
